Measurements from patent US20140018384A1, “QUINOLINONE DERIVATIVES FOR USE IN THE TREATMENT OF AN AUTOIMMUNE DISEASE AND/OR AN INFLAMMATORY DISEASE” (PRONOXIS AB, priority 2011, published 2014).
Where two headings read alike, the source gives them in different places.

Assays:
PLB-985 cells = assay: ROS production (isoluminol/HRP luminescence) in PLB-985 cells, Biological Example 1; assay type: cell-based
In short: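 Cells in HBSS received compound plus isoluminol and HRP; luminescence followed 10–30 min, AUC divided by control to give fold change in NADPH oxidase activity. HL-60: 50 μM compound vs blank; PLB-985: 25 μM compound vs blank or vs DMSO.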

Rat granulocytes = assay: ROS production in thioglycollate-recruited rat granulocytes, isoluminol chemiluminescence assay; assay type: cell-based; conditions: 25 μM compound, compared to DMSO control cells; FIGS. 2A and B
Description: (§1) FIG. 2: ROS production and effect on T cell arthritogeniciy of ROS inducing substances. A-B). Thioglycolate recruited rat granulocytes (in accordance with the procedure in Biological Example 3) were treated with 25 μM substance and measurement of ROS production was initiated immediately using an isoluminol based chemiluminescence assay (FIGS. 2A and 2B). […] C-D) Arthritogenic rat splenocytes were treated with 12.5 μM substance during 44 hours ex vivo incubation in presence of ConA (FIGS. 2C and 2D). Following incubation, cells were washed and injected i.p. into naive recipient rats (n=8-11). Disease severity in recipient rats was followed by investigation of macroscopic swelling and redness of the rat joints. Treatment with substance during ex vivo stimulation prevented transfer of arthritogenic T cells.
Rat granulocytes were recruited to the peritoneum by an i.p. injection of 2.4% thioglycollate medium (autoclaved). The peritoneal cavity was washed after 24 hours with ice cold HBSS. Collected cells were, after lysis of red blood cells, washed and resupended in HBSS. In a total volume of 100 μl, compound (25 μM), isoluminol (0.175 mg/ml) and horseradish peroxidase (fraction II) (1.75 U/ml) was added to the cells (0.1*10̂6/well) and resulting ROS production detected as a luminescence signal (fluorescent unit, FU) over time. […] All samples were analysed at least in duplicates.

arthritogenic T cells = assay: Adoptive transfer of ex vivo treated arthritogenic T cells (splenocytes) to naive recipient DA rats; assay type: in vivo, rat; conditions: 12.5 μM substance, 44 hours ex vivo with ConA; cells injected i.p. into DA rats; FIGS. 2C and D
Description: Arthritogenic cells were treated with H2O2 (176-1.76 μM) for 20 min and A) granulocytes and B) T cells (see FIGS. 1A and 1B) were investigated for intracellular ROS using a DHR-123 based flow cytometric assay. […] Arthritogenic cells were cultured in presence of Con A and w/wo H2O2 (176-1.76 μM) for 44 hours and then transferred to naïve recipient rats (n=7-9).
as §1
In order to investigate the effect of ROS on T cell arthritogenicity, spleens were collected from arthritis susceptible DA rats injected with the arthritis inducing oil pristane (0.5 ml per rat s.c.) day −13. Single cell suspensions were prepared from the spleens and red blood cells were lysed. After wash, cells were resuspended in cell culture medium containing concanavalin A (ConA) to a final concentration of 4.5×10̂6 cells/ml. […] The cells were incubated for 44 hours at 37° C. After incubation the cells were washed and resuspended in PBS to a final concentration of 60*10̂6 cells/ml. Cells were injected i.p. (1 ml/rat) into naïve recipient DA rats and disease was followed by macroscopic evaluation of disease.
In order to investigate the effect of ROS inducing substances on T cell arthritogenicity, spleens were collected from arthritis susceptible DA rats injected with the arthritis inducing oil pristane (0.5 ml per rat s.c.) day −13. Single cell suspensions were prepared from the spleens and red blood cells were lysed.
After wash, cells were resuspended in cell culture medium containing concanavalin A (ConA) to a final concentration of 4.5×10̂6 cells/ml. Substance A or B was added to the cells to a final concentration of 12.5 μM. The cells were incubated for 44 hours at 37° C. Control cells were incubated in presence of vehicle control (DMSO). After incubation the cells were washed and resuspended in PBS to a final concentration of C) 30*10̂6 and D) 60*10̂6 cells/ml. Cells were injected i.p. (1 ml/rat) into naïve recipient DA rats and disease was followed by macroscopic evaluation of disease (n=8-11).

HL-60 cells = assay: ROS production (isoluminol/HRP luminescence) in HL-60 cells, Biological Example 1; assay type: cell-based; conditions: Homo sapiens, 50 μM compound vs. blank, read-out: Activity A (fold increase of NADPH activity compared to control)
Description: To cells (HL-60 or PLB-985) in HBSS medium was added compound (25 or 50 μM), isoluminol and Horse Radish Peroxidase, fraction II. Luminescence was measured for 10-30 minutes and the area under the […] curve was divided by that from a control experiment to give the activity expressed as fold change.
Each assay indicated below was performed at a different site, at a different time, by different personnel and/or using different cell lines, concentrations and controls. The cell line, concentration of example compound and control used in respect of each assay were as indicated below. The values obtained from these different setups (each using an otherwise identical assay) are given as Activity A, B, C, D or E in Table 5 below. The values are expressed as fold increase of NADPH activity in the presence of the relevant of compound (as indicated below) compared to the relevant control (as indicated below).
Activity A: HL-60 cells; 50 μM compound vs. blank Activity B: PLB-985 cells; 25 μM compound vs. blank Activity C, D and E: PLB-985 cells; 25 μM compound vs. DMSO

[1] = 25 μM compound vs. DMSO, setup C, read-out: Activity C (fold increase of NADPH activity compared to control)
[2] = 25 μM compound vs. DMSO, setup D, read-out: Activity D (fold increase of NADPH activity compared to control)
[3] = 25 μM compound vs. blank, read-out: Activity B (fold increase of NADPH activity compared to control)

Compound	fold induction at 25 µM (PLB-985 cells; [2])	fold induction at 50 µM (HL-60 cells)	also measured
O=C(Cn1cc(C(=O)c2ccc3ccccc3c2)c(=O)c2cc3c(cc21)OCO3)Nc1ccc(Cl)cc1 [Example 1, N-(4-Chlorophenyl)-2-[6,7-methylenedioxy-3-(2-naphthoyl)-4-oxo-1-quinolinyl]-acetamide]	27.4	–	fold induction at 25 µM (PLB-985 cells; [1]): 45.3; fold induction at 25 µM (PLB-985 cells; 25 μM compound vs. DMSO, setup E, read-out: Activity E (fold increase of NADPH activity compared to control)): 8.5; cellular ROS production (luminescence signal over time) (Rat granulocytes): clear induction of cellular ROS production; T cells capacity to transfer arthritis to naive recipients (arthritogenic T cells): significantly alters the T cells capacity to transfer arthritis to naïve recipients
COc1ccc(NC(=O)Cn2cc(C(=O)c3ccccc3)c(=O)c3cc4c(cc32)OCO4)cc1 [Example 87, N-p-Anisyl-2-(3-benzoyl-6,7-methylenedioxy-4-oxo-1-quinolinyl)acetamide]	–	–	fold induction at 25 µM (PLB-985 cells; [1]): 27.2
O=C(Cn1cc(C(=O)c2ccc(Cl)cc2)c(=O)c2cc3c(cc21)OCO3)Nc1ccc2c(c1)OCO2 [Example 88, 2-[3-(4-Chlorobenzoyl)-6,7-methylenedioxy-4-oxo-1-quinolinyl]-N-(3,4-methylenedioxyphenyl)acetamide]	–	–	fold induction at 25 µM (PLB-985 cells; [1]): 31.4
O=C(Cn1cc(C(=O)c2ccc(F)cc2)c(=O)c2cc3c(cc21)OCO3)Nc1ccc(Cl)cc1 [Example 89, N-(4-Chlorophenyl)-2-[3-(4-fluorobenzoyl)-6,7-methylenedioxy-4-oxo-1-quinolinyl]acetamide]	17.1	–	fold induction at 25 µM (PLB-985 cells; [1]): 34.4; fold induction at 25 µM (PLB-985 cells; [3]): 33
COc1ccc(NC(=O)Cn2cc(C(=O)c3ccc(Cl)cc3)c(=O)c3cc4c(cc32)OCO4)cc1 [Example 90, N-p-Anisyl-2-[3-(4-chlorobenzoyl)-6,7-methylenedioxy-4-oxo-1-quinolinyl]acetamide]	–	–	fold induction at 25 µM (PLB-985 cells; [1]): 37.6; fold induction at 25 µM (PLB-985 cells; [3]): 40.9
CCOc1ccc2c(c1)c(=O)c(C(=O)c1ccc(C)cc1)cn2CC(=O)Nc1ccccc1C [Example 91, 2-(6-Ethoxy-4-oxo-3-p-toluoyl-1-quinolinyl)-N-o-tolylacetamide]	–	5.3	–
O=C(Cn1cc(C(=O)c2ccc(Cl)cc2)c(=O)c2cc3c(cc21)OCO3)Nc1ccc(F)cc1 [Example 92, 2-[3-(4-Chlorobenzoyl)-6,7-methylenedioxy-4-oxo-1-quinolinyl]-N-(4-fluorophenyl)acetamide]	–	8.2	–
COc1ccc(NC(=O)Cn2cc(C(=O)c3ccc(F)cc3)c(=O)c3cc4c(cc32)OCO4)c(OC)c1 [Example 93, N-(2,4-Dimethoxyphenyl)-2-[3-(4-fluorobenzoyl)-6,7-methylenedioxy-4-oxo-1-quinolinyl]acetamide]	–	2.9	–
CCOc1ccc(C(=O)c2cn(CC(=O)Nc3ccc(OC)cc3)c3cc4c(cc3c2=O)OCO4)cc1 [Example 94, N-p-Anisyl-2-[3-(4-ethoxybenzoyl)-6,7-methylenedioxy-4-oxo-1-quinolinyl]acetamide]	–	8.4	–
O=C(Cn1cc(S(=O)(=O)c2ccc(F)cc2)c(=O)c2cc3c(cc21)OCO3)Nc1ccccc1 [Example 96, 2-[3-(4-Fluorobenzenesulfonyl)-6,7-methylenedioxy-4-oxo-1-quinolinyl]-N-phenylacetamide]	–	2.3	–
Cc1ccc(C(=O)c2cn(CC(=O)Nc3ccc(F)c(F)c3)c3cc4c(cc3c2=O)OCO4)cc1 [Example 97, N-(3,4-Difluorophenyl)-2-(6,7-methylenedioxy-4-oxo-3-p-toluoyl-1-quinolinyl)acetamide]	–	6	–
CCc1ccc(C(=O)c2cn(CC(=O)Nc3ccc(OC)cc3)c3cc4c(cc3c2=O)OCO4)cc1 [Example 98, N-p-Anisyl-2-[3-(4-ethylbenzoyl)-6,7-methylenedioxy-4-oxo-1-quinolinyl]acetamide]	–	9	–
CCOc1ccc(NC(=O)Cn2cc(C(=O)c3ccccc3)c(=O)c3cc4c(cc32)OCO4)cc1 [Example 99, 2-(3-Benzoyl-6,7-methylenedioxy-4-oxo-1-quinolinyl)-N-(4-ethoxyphenyl)acetamide]	–	4.3	–
CCc1ccc(C(=O)c2cn(CC(=O)Nc3ccc(F)cc3)c3cc4c(cc3c2=O)OCO4)cc1 [Example 100, 2-[3-(4-Ethylbenzoyl)-6,7-methylenedioxy-4-oxo-1-quinolinyl]-N-(4-fluorophenyl)acetamide]	–	2.9	–
Cc1ccc(C(=O)c2cn(CC(=O)Nc3ccccc3C)c3cc4c(cc3c2=O)OCO4)cc1 [Example 101, 2-(6,7-Methylenedioxy-4-oxo-3-p-toluoyl-1-quinolinyl)-N-o-tolylacetamide]	–	2.1	–
CCOc1ccc2c(c1)c(=O)c(C(=O)c1ccc(F)cc1)cn2CC(=O)Nc1ccc(OC)cc1 [Example 102, N-p-Anisyl-2-[6-ethoxy-3-(4-fluorobenzoyl)-4-oxo-1-quinolinyl]acetamide]	2.1	–	–
COc1ccc(NC(=O)Cn2cc(C(=O)c3ccccc3)c(=O)c3cc(OC)c(OC)cc32)cc1 [Example 103, N-p-Anisyl-2-(3-benzoyl-6,7-dimethoxy-4-oxo-1-quinolinyl)acetamide]	3.7	–	–
COc1ccc(NC(=O)Cn2cc(C(=O)c3ccc(Cl)cc3)c(=O)c3cc(OC)c(OC)cc32)cc1 [Example 104, N-p-Anisyl-2-[3-(4-chlorobenzoyl)-6,7-dimethoxy-4-oxo-1-quinolinyl]acetamide]	1.4	–	–
COc1ccc(NC(=O)Cn2cc(C(=O)c3ccc(F)cc3)c(=O)c3cc(OC)c(OC)cc32)cc1 [Example 105, N-p-Anisyl-2-[6,7-dimethoxy-3-(4-fluorobenzoyl)-4-oxo-1-quinolinyl]acetamide]	2	–	–
COc1ccc(NC(=O)Cn2cc(C(=O)c3ccc(F)cc3)c(=O)c3cc(F)ccc32)cc1 [Example 106, N-p-Anisyl-2-[6-fluoro-3-(4-fluorobenzoyl)-4-oxo-1-quinolinyl]acetamide]	5.6	–	–
COc1ccc(NC(=O)Cn2cc(C(=O)c3ccc(F)cc3)c(=O)c3cc(OC)ccc32)cc1 [Example 107, N-p-Anisyl-2-[3-(4-fluorobenzoyl)-6-methoxy-4-oxo-1-quinolinyl]acetamide]	6.6	–	–
COc1ccc(NC(=O)Cn2cc(C(=O)c3ccc(F)cc3)c(=O)c3cc4c(cc32)OCCO4)cc1 [Example 108, N-p-Anisyl-2-[6,7-ethylenedioxy-3-(4-fluorobenzoyl)-4-oxo-1-quinolinyl]acetamide]	1.3	–	–
COc1ccc(NC(=O)Cn2cc(C(=O)c3ccc(F)cc3)c(=O)c3cc(Cl)ccc32)cc1 [Example 109, N-p-Anisyl-2-[6-chloro-3-(4-fluorobenzoyl)-4-oxo-1-quinolinyl]acetamide]	2.5	–	–
